Measured values from ChEMBL document CHEMBL1152560, “Substituted 2-arylbenzothiazoles as kinase inhibitors: hit-to-lead optimization” (Bioorg Med Chem, 2009).

Assays:
[1] = biological target: Macrophage colony-stimulating factor 1 receptor (Homo sapiens) (UniProt P07333); experiment: Residual activity of CSF1R at 1 uM by microplate scintillation counting
[2] = biological target: T1, Tyrosine-protein kinase Tec (Homo sapiens) (UniProt P42680); experiment: Residual activity of TEC at 0.1 uM by microplate scintillation counting
T1 sequence (whole entry): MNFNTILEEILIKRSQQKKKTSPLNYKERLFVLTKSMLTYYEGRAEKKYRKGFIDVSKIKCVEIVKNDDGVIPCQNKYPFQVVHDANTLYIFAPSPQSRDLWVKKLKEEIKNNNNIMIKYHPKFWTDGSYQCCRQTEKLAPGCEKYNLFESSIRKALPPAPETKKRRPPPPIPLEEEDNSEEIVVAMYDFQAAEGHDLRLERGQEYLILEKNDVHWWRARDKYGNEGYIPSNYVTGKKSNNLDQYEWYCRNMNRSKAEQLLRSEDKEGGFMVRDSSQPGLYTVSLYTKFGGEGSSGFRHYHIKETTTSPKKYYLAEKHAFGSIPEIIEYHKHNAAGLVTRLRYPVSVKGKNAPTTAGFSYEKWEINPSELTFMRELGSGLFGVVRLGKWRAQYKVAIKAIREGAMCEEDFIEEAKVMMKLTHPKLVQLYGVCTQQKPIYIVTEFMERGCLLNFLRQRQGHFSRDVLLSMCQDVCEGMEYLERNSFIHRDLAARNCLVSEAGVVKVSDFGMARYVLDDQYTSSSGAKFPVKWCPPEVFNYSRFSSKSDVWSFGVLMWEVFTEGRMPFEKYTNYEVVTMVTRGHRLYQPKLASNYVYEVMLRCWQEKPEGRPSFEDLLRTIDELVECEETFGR

[3] = biological target: Serine/threonine-protein kinase PAK 5 (Homo sapiens) (UniProt Q9P286); experiment: Residual activity of PAK7 at 1 uM by microplate scintillation counting
Sequence of Serine/threonine-protein kinase PAK 5 (Homo sapiens) (Q9P286 whole entry, looked up): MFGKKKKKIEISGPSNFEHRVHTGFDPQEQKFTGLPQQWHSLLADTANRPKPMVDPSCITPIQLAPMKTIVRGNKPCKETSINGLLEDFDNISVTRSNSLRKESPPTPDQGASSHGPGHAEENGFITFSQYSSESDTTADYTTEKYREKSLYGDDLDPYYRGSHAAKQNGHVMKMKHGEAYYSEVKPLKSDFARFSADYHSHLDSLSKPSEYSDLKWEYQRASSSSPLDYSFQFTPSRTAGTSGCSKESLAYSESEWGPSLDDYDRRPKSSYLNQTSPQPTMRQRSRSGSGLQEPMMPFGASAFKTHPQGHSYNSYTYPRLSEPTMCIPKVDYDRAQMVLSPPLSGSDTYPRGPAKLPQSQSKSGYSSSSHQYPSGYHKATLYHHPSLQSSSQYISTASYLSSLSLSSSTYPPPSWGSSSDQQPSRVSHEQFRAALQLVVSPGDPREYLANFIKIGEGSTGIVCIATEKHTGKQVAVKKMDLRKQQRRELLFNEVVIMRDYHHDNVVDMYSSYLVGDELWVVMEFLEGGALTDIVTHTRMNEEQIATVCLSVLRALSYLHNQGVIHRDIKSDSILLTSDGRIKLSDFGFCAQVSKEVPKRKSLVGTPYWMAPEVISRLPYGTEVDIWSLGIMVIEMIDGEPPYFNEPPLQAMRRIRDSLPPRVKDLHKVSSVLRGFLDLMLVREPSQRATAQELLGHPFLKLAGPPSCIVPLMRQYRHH

[4] = biological target: T2, Serine/threonine-protein kinase Nek11 (Homo sapiens) (UniProt Q8NG66); experiment: Residual activity of NEK11 at 1 uM by microplate scintillation counting
T2 sequence (whole entry): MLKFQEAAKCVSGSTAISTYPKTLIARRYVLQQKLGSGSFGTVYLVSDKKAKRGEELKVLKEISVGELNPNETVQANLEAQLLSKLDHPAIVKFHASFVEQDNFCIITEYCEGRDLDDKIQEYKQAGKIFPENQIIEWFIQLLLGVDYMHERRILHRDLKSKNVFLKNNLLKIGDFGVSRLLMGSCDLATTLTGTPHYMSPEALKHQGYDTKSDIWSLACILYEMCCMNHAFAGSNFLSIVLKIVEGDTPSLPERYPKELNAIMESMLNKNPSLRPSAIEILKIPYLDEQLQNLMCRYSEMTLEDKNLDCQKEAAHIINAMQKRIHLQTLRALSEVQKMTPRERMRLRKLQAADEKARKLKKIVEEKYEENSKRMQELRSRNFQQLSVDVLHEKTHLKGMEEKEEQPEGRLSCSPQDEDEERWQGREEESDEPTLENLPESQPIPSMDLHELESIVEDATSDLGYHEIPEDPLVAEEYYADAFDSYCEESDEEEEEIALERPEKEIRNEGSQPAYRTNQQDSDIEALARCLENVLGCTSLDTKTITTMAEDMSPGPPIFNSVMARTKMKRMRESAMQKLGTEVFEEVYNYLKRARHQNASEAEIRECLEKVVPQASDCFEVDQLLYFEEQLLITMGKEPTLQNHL

[5] = biological target: Misshapen-like kinase 1 (Homo sapiens) (UniProt Q8N4C8); experiment: Residual activity of MINK1 at 0.1 uM by microplate scintillation counting
[6] = biological target: CDK1/Cyclin A (Homo sapiens) (UniProt P06493+P20248); experiment: Residual activity of CDK1/Cyclin A at 0.1 uM by microplate scintillation counting; format: protein-complex assay
[7] = biological target: Ribosomal protein S6 kinase alpha-4 (Homo sapiens) (UniProt O75676); experiment: Residual activity of RPS6KA4 at 0.1 uM by microplate scintillation counting
[8] = biological target: Tyrosine-protein kinase SYK (Homo sapiens) (UniProt P43405); experiment: Residual activity of SYK at 10 uM by microplate scintillation counting
[9] = biological target: G protein-coupled receptor kinase 6 (Homo sapiens) (UniProt P43250); experiment: Residual activity of GRK6 at 0.1 uM by microplate scintillation counting
[10] = biological target: BDNF/NT-3 growth factors receptor (Homo sapiens) (UniProt Q16620); experiment: Residual activity of TRK-B at 1 uM by microplate scintillation counting
[11] = biological target: T3, Epidermal growth factor receptor (Homo sapiens, UniProt P00533); experiment: Residual activity of wild type EGF-R at 10 uM by microplate scintillation counting
[12] = biological target: Serine/threonine-protein kinase PLK1 (Homo sapiens) (UniProt P53350); experiment: Residual activity of PLK1 at 10 uM by microplate scintillation counting
[13] = biological target: Tyrosine-protein kinase Lck (Homo sapiens) (UniProt P06239); experiment: Residual activity of LCK at 10 uM by microplate scintillation counting
Sequence of Tyrosine-protein kinase Lck (Homo sapiens) (P06239 2-509 limits assumed): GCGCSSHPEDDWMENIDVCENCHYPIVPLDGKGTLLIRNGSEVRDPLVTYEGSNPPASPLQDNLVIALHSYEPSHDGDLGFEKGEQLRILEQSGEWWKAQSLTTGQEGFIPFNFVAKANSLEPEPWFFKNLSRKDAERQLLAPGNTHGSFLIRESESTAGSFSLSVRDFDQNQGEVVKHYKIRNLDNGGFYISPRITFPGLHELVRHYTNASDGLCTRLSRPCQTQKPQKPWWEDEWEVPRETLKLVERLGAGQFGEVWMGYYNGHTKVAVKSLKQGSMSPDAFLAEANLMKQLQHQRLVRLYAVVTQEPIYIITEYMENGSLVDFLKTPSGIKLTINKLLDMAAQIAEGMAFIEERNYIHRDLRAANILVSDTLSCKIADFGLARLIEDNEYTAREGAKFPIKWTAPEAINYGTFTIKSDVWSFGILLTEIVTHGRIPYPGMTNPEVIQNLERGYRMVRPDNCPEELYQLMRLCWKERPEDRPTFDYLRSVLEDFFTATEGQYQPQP

[14] = biological target: T4, Serine/threonine-protein kinase 17A (Homo sapiens) (UniProt Q9UEE5); experiment: Residual activity of STK17A at 10 uM by microplate scintillation counting
T4 sequence (whole entry): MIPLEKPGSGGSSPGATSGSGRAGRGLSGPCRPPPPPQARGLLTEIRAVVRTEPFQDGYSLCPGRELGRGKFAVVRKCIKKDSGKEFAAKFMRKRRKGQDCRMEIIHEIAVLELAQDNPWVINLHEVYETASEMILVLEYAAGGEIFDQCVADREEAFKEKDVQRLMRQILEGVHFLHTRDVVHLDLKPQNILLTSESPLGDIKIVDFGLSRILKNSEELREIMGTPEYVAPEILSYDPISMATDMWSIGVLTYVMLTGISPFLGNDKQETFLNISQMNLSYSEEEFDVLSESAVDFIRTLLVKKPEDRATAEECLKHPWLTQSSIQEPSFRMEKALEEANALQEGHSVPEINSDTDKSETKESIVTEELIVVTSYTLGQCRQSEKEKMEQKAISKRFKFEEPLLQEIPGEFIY

[15] = biological target: NT-3 growth factor receptor (Homo sapiens) (UniProt Q16288); experiment: Residual activity of TRK-C at 10 uM by microplate scintillation counting
[16] = biological target: Ephrin type-A receptor 5 (Homo sapiens) (UniProt P54756); experiment: Residual activity of EPHA5 at 10 uM by microplate scintillation counting
Sequence of Ephrin type-A receptor 5 (Homo sapiens) (P54756 whole entry): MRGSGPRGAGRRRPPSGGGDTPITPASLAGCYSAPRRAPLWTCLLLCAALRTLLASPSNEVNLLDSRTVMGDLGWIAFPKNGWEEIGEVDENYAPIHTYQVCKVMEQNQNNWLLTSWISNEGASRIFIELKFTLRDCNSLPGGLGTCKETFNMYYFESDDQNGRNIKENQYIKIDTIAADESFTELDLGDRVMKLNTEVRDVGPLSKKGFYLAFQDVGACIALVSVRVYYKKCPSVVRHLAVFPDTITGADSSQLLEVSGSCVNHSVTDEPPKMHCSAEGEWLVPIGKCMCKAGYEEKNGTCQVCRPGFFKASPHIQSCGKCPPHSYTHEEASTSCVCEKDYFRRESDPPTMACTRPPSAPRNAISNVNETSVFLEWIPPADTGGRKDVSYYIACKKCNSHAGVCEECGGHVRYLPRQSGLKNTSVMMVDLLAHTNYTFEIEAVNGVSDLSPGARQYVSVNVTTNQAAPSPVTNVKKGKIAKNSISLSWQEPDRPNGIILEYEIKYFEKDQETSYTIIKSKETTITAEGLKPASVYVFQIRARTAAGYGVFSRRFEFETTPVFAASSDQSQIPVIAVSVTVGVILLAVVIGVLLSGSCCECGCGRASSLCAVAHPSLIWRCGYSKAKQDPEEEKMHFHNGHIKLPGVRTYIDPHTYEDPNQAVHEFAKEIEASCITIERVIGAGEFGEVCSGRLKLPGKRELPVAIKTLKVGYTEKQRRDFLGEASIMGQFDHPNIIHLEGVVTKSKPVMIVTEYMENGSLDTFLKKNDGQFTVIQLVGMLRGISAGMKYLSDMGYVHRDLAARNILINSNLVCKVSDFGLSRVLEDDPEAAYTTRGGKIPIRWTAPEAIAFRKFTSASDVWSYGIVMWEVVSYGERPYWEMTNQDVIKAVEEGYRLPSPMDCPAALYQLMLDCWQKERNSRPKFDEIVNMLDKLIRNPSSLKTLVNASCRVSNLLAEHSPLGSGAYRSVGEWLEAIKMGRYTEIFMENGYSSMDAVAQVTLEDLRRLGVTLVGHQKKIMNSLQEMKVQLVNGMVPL

[17] = biological target: T3, Epidermal growth factor receptor; experiment: Residual activity of wild type EGF-R at 1 uM by microplate scintillation counting
[18] = biological target: Insulin-like growth factor 1 receptor (Homo sapiens) (UniProt P08069); experiment: Residual activity of IGF1R at 10 uM by microplate scintillation counting
Sequence of Insulin-like growth factor 1 receptor (Homo sapiens) (P08069 31-736 limits assumed): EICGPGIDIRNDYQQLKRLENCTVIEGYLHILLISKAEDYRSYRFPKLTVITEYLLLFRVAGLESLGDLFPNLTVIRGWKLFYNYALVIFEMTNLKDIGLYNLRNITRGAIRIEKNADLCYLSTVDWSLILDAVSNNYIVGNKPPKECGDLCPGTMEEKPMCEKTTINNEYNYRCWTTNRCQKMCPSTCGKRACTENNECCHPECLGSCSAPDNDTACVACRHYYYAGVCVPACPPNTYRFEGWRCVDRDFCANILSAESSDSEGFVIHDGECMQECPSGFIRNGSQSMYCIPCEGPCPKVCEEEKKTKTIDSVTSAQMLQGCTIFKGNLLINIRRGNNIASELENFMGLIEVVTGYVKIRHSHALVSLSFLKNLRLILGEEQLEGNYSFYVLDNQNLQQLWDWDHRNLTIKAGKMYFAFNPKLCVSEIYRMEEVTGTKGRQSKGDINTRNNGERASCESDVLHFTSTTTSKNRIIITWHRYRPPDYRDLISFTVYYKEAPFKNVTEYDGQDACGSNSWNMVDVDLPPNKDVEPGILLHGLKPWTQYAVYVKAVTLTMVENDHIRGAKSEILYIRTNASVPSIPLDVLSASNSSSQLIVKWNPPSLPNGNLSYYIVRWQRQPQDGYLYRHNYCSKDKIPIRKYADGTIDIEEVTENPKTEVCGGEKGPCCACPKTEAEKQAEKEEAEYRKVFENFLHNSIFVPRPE
Sequence of Insulin-like growth factor 1 receptor (Homo sapiens) (P08069 741-1367 limits assumed): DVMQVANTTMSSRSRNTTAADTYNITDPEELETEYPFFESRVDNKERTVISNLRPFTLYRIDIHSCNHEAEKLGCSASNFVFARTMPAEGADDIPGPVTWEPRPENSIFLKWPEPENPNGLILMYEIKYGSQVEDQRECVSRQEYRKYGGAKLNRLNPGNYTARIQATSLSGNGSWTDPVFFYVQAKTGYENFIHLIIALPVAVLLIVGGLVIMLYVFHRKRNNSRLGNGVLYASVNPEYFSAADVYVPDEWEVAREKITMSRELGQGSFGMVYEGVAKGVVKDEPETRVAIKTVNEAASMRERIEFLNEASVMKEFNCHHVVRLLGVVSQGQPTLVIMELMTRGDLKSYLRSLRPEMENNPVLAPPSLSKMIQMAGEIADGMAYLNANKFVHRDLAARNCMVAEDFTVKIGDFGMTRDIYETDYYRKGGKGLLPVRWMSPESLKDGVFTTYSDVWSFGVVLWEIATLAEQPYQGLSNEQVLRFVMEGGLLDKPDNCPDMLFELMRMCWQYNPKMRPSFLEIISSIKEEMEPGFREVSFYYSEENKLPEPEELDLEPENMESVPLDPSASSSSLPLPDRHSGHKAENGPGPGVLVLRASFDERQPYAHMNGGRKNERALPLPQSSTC

[19] = biological target: Serine/threonine-protein kinase WNK2 (Homo sapiens) (UniProt Q9Y3S1); experiment: Residual activity of WNK2 at 1 uM by microplate scintillation counting
[20] = biological target: Tyrosine-protein kinase ABL1 (Homo sapiens) (UniProt P00519); experiment: Residual activity of wild type ABL1 at 1 uM by microplate scintillation counting
Sequence of Tyrosine-protein kinase ABL1 (Homo sapiens) (P00519 whole entry): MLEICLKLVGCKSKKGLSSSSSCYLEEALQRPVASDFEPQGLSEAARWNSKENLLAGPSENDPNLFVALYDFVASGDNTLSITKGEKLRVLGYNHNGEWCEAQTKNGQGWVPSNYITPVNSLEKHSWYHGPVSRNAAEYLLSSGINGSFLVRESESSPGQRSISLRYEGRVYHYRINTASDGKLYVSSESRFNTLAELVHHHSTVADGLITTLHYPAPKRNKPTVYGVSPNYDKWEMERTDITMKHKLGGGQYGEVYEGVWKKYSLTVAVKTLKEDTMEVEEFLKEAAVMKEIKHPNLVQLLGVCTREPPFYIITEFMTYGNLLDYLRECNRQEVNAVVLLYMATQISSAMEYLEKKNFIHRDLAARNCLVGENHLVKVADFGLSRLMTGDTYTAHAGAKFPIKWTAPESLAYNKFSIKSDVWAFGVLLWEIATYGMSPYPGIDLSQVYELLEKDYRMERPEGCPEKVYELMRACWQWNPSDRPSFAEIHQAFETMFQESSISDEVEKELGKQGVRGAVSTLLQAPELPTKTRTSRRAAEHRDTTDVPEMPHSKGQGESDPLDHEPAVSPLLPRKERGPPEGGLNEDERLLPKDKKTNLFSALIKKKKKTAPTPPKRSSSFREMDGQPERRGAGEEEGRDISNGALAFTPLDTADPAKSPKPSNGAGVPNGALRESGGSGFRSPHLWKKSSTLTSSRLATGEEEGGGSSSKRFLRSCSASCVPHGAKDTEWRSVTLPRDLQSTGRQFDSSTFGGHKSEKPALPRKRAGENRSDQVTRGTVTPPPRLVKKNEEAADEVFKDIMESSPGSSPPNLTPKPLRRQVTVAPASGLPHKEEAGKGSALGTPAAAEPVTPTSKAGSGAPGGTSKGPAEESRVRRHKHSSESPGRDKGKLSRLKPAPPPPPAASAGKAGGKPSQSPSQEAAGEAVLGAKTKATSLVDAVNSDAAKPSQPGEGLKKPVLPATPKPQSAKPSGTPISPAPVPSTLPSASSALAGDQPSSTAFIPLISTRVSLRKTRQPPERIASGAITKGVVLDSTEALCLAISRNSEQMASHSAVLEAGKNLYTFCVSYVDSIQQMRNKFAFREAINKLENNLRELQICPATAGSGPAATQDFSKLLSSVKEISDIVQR

Row | residual activity [1] [%] | residual activity [2] [%] | residual activity [3] [%] | residual activity [4] [%] | residual activity [5] [%] | residual activity [6] [%] | residual activity [7] [%] | residual activity [8] [%] | residual activity [9] [%] | residual activity [10] [%] | residual activity [11] [%] | residual activity [12] [%] | residual activity [13] [%] | residual activity [14] [%] | residual activity [15] [%] | residual activity [16] [%] | residual activity [17] [%] | residual activity [18] [%] | residual activity [19] [%] | residual activity [20] [%] | Structure (SMILES)
1 | 112 | 98 | 83 | 91 | 101 | 109 | 88 | 162 | 88 | 104 | 67 | 123 | 6 | 6 | 166 | 236 | 91 | 98 | 34 | 100 | COc1cc2c(Oc3ccc(-c4nc5ccccc5s4)cc3)ncnc2cc1OCCCN1CCCC1
2 | 118 | 105 | 77 | 104 | 77 | 94 | 91 | 146 | 79 | 93 | 52 | 134 | 4 | 19 | 188 | 302 | 77 | 100 | 25 | 99 | COc1cc2c(Oc3ccc(-c4nc5ccccc5s4)cc3)ncnc2cc1OCCCN1CCN(C)CC1
3 | 105 | 96 | 83 | 93 | 77 | 99 | 93 | 63 | 88 | 95 | 48 | 100 | 2 | 1 | 132 | 162 | 96 | 46 | 53 | 110 | COc1cc2c(Oc3ccc(-c4nc5ccccc5s4)cc3F)ncnc2cc1OCCCN1CCN(C)CC1
